Drawing on ChEMBL document CHEMBL2331464, “Diarylheptanoids and flavonoids from viscum album inhibit LPS-stimulated production of pro-inflammatory cytokines in bone marrow-derived dendritic cells” (J Nat Prod, 2013), this text covers IC50 and Activity for 26 compounds.

In general, IC50 refers to the concentration that gives 50% inhibition.

Structures are written as SMILES. Where only a bound is given, the exact number is not on record here.

What all share (conditions): bmdc
Data set [1] can be described thus: Antiinflammatory activity in C57BL/6 mouse BMDCs assessed as inhibition of LPS-stimulated TNF-alpha production treated 1 hr before LPS challenge measured 16 hrs post stimulation by ELISA. Background: An ELISA detects its analyte on a solid surface through an enzyme-linked reagent.
Data set [2] is described as follows: Antiinflammatory activity in C57BL/6 mouse BMDCs assessed as inhibition of LPS-stimulated IL-12p40 production treated 1 hr before LPS challenge measured 16 hrs post stimulation by ELISA.
A short description of data set [3]: Cytotoxicity against C57BL/6 mouse BMDCs at 2 to 50 microM by MTT assay. (In general: Tetrazolium dyes change colour on reduction, which living cells bring about.)
The test system of the next data set is IL-6 (mouse). Put plainly: Antiinflammatory activity in C57BL/6 mouse BMDCs assessed as inhibition of LPS-stimulated IL-6 production treated 1 hr before LPS challenge measured 16 hrs post stimulation by ELISA.

As to `COc1cc(O)c2c(c1)O[C@H](c1ccc(O[C@@H]3O[C@H](CO)[C@@H](O)[C@H](O)[C@H]3O[C@@H]3OC[C@](O)(CO[C@@H]4OC[C@](O)(CO)[C@H]4O)[C@H]3O)c(OC)c1)CC2=O`, the IC50 (in data set [1]; in data set [2]; in the data set with IL-6 (mouse)) was above 50 µM throughout. In addition, the Activity result in data set [3] is recorded as “Non-toxic”.

On to `COc1cc(O)c2c(c1)O[C@H](c1ccc(O[C@@H]3O[C@H](CO)[C@@H](O)[C@H](O)[C@H]3O[C@@H]3OC[C@](O)(CO)[C@H]3O)c(OC)c1)CC2=O`, for which the IC50 (in data set [1]; in data set [2]; in the data set with IL-6 (mouse)) was above 50 µM throughout. Moreover, the Activity result in data set [3] is “Non-toxic”.

`COc1cc([C@@H]2CC(=O)c3c(O)cc(O[C@@H]4O[C@H](CO)[C@@H](O)[C@H](O)[C@H]4O[C@@H]4OC[C@](O)(CO)[C@H]4O)cc3O2)ccc1O`: the IC50 (in data set [1]; in data set [2]; in the data set on IL-6 (mouse)) was above 50 µM in each case. For the same compound, the Activity entry in data set [3] is recorded as “Non-toxic”.

As to `COc1cc([C@@H]2c3c(cc(OC)c(O)c3OC)C[C@H](CO)[C@H]2CO[C@@H]2O[C@H](CO)[C@@H](O)[C@H](O)[C@H]2O)cc(OC)c1O`, the IC50 in data set [1] was above 50 µM; in data set [2], 14.6 µM; in the data set on IL-6 (mouse), above 50 µM. Also, the Activity result in data set [3] was “Non-toxic”.

On to `COc1cc(/C=C/CO)cc(OC)c1O[C@@H]1O[C@H](CO)[C@@H](O)[C@H](O)[C@H]1O[C@@H]1OC[C@](O)(CO)[C@H]1O`, for which the IC50 (in data set [1]; in data set [2]; in the data set with IL-6 (mouse)) was above 50 µM throughout. For the same compound, the Activity result in data set [3] was “Non-toxic”.

In the case of `CO[C@@H](/C=C/c1ccc(O)cc1)C[C@@H](O)CCc1ccc(O)cc1`, the IC50 was 0.32 µM in data set [1], 0.09 µM in data set [2] and 0.68 µM in the data set with IL-6 (mouse). Also, the Activity entry in data set [3] is reported as “Non-toxic”.

With `CO[C@H](/C=C/c1ccc(O)cc1)C[C@@H](O)CCc1ccc(O)cc1`, the values for the IC50 (in data set [1]; in data set [2]; with IL-6 (mouse)) were above 50 µM, 11.8 µM and above 50 µM, respectively. For the same compound, in data set [3], the Activity entry was “Non-toxic”.

As to `O=C(/C=C/c1ccc(O)cc1)C[C@@H](O)CCc1ccc(O)cc1`, the IC50 (in data set [1]; in data set [2]; with IL-6 (mouse)) was above 50 µM each time. Moreover, the Activity result in data set [3] is on record as “Non-toxic”.

Turning to `COc1cc(O)c2c(=O)c(OC)c(-c3ccc(O[C@@H]4O[C@H](CO)[C@@H](O)[C@H](O)[C@H]4O[C@@H]4OC[C@](O)(CO)[C@H]4O)c(OC)c3)oc2c1`, the IC50 in data set [1] was 1.01 µM; in data set [2], 3.86 µM; with IL-6 (mouse) it was 8.96 µM. For the same compound, in data set [3], the Activity result is listed as “Non-toxic”.

Take `COc1cc(O)c2c(=O)c(O[C@H]3O[C@H](COC(=O)CC(C)(O)CC(=O)O)[C@@H](O)[C@H](O)[C@H]3O)c(-c3ccc(O[C@@H]4O[C@H](CO)[C@@H](O)[C@H](O)[C@H]4O)c(OC)c3)oc2c1` (some centres undefined): the IC50 (in data set [1]; in data set [2]; with IL-6 (mouse)) was above 50 µM throughout. Also, the Activity result in data set [3] is given as “Non-toxic”.

For the compound `COc1cc(O)c2c(=O)c(O[C@H]3O[C@H](COC(=O)CC(C)(O)CC(=O)OC[C@H]4O[C@@H](Oc5c(OC)cc(/C=C/CO)cc5OC)[C@H](O)[C@@H](O)[C@@H]4O)[C@@H](O)[C@H](O)[C@H]3O)c(-c3ccc(O[C@@H]4O[C@H](CO)[C@@H](O)[C@H](O)[C@H]4O)c(OC)c3)oc2c1` (some centres undefined), the IC50 (in data set [1]; in data set [2]; with IL-6 (mouse)) was above 50 µM in each case. The Activity entry in data set [3] is “Non-toxic”.

Consider `COc1cc(-c2cc(=O)c3c(O)cc(O[C@@H]4O[C@H](CO)[C@@H](O)[C@H](O)[C@H]4O[C@@H]4OC[C@](O)(CO)[C@@H]4O)cc3o2)ccc1O`, for which the IC50 is above 50 µM in data set [1], 76.8 µM in data set [2] and above 50 µM in the data set on IL-6 (mouse). Also, the Activity result in data set [3] is “Non-toxic”.

For `COc1cc(O)c2c(=O)cc(-c3ccc(O[C@@H]4O[C@H](CO)[C@@H](O)[C@H](O)[C@H]4O[C@@H]4OC[C@](O)(CO)[C@H]4O)c(OC)c3)oc2c1`, the concentration for half-maximal inhibition (IC50) (in data set [1]; in data set [2]; with IL-6 (mouse)) was above 50 µM in each case. Besides, the Activity result in data set [3] is reported as “Non-toxic”.

In the case of `COc1cc([C@H]2OC[C@H]3[C@@H]2CO[C@@H]3c2cc(OC)c(O)c(OC)c2)ccc1O`, the IC50 is 22.3 µM in data set [1], 2 µM in data set [2] and 20.9 µM with IL-6 (mouse). Besides, the Activity entry in data set [3] was “Non-toxic”.

Take `COc1cc([C@H]2c3c(cc(OC)c(O)c3OC)C[C@@H](CO)[C@@H]2CO[C@@H]2O[C@H](CO)[C@@H](O)[C@H](O)[C@H]2O)cc(OC)c1O`: the IC50 (in data set [1]; in data set [2]; in the data set on IL-6 (mouse)) was above 50 µM each time. In addition, the Activity entry in data set [3] was “Non-toxic”.

Turning to `COc1cc([C@H]2OC[C@H]3[C@@H]2CO[C@@H]3c2ccc(O)c(OC)c2)ccc1O` [(+)-PINORESINOL], in data set [3], the Activity entry was “Non-toxic”.

With `COc1cc([C@@H]2OC[C@@H]3[C@H]2CO[C@H]3c2ccc(O)c(OC)c2)ccc1O` [(+)-PINORESINOL], the results for the IC50 (in data set [1]; in data set [2]; with IL-6 (mouse)) were above 50 µM, 28.6 µM and above 50 µM, respectively.

On to `C=C(C)[C@@H]1CC[C@]2(C(=O)O)CC[C@]3(C)[C@H](CC[C@@H]4[C@@]5(C)CC[C@H](O)C(C)(C)[C@@H]5CC[C@]43C)[C@@H]12` [BETULINIC ACID], for which the IC50 amounted to 19.4 µM in data set [1], 3.61 µM in data set [2] and 21.3 µM in the data set with IL-6 (mouse). Also, in data set [3], the Activity entry was “Non-toxic”.

Take `CC1(C)CC[C@]2(CO)CC[C@]3(C)C(=CC[C@@H]4[C@@]5(C)CC[C@H](O)C(C)(C)[C@@H]5CC[C@]43C)[C@@H]2C1` [ERYTHRODIOL]: the IC50 is above 50 µM in data set [1], 13.5 µM in data set [2] and above 50 µM with IL-6 (mouse). In addition, the Activity result in data set [3] is reported as “Non-toxic”.

For `C=CC(C)(O)CC/C=C(\C)CCC=C(C)C` (centres undefined) [NEROLIDOL], the values for the IC50 (in data set [1]; in data set [2]; with IL-6 (mouse)) were 2.02 µM, 7.57 µM and 20.2 µM, respectively. Moreover, the Activity entry in data set [3] is on record as “Non-toxic”.

With `CC1(C)CC[C@]2(C(=O)O)CC[C@]3(C)C(=CC[C@@H]4[C@@]5(C)CC[C@H](O)C(C)(C)[C@@H]5CC[C@]43C)[C@@H]2C1` [OLEANOLIC_ACID], the IC50 (in data set [1]; in data set [2]; with IL-6 (mouse)) was above 50 µM throughout. Moreover, the Activity result in data set [3] is reported as “Non-toxic”.

`C[S+]([O-])c1ccc(-c2nc(-c3ccc(F)cc3)c(-c3ccncc3)[nH]2)cc1` (centres undefined) [SB-203580]: the IC50 in data set [1] was 7.53 µM; in data set [2], 5.21 µM; with IL-6 (mouse), 3.45 µM.

`COc1cc(/C=C/CO)cc(OC)c1O[C@@H]1O[C@H](CO)[C@@H](O)[C@H](O)[C@H]1O` [SYRINGIN]: the IC50 (in data set [1]; in data set [2]; with IL-6 (mouse)) was above 50 µM throughout. Moreover, the Activity result in data set [3] was “Non-toxic”.

Consider `C/C(=C\CO)CCC[C@H](C)CCC[C@H](C)CCCC(C)C` [TRANS-PHYTOL], for which the IC50 in data set [1] turned out to be 1.22 µM; in data set [2], 3.62 µM; in the data set with IL-6 (mouse), 2.02 µM. In data set [3], the Activity entry was “Non-toxic”.

For the compound `COc1cc([C@@H]2CC(=O)c3c(O)cc(O[C@@H]4O[C@H](CO)[C@@H](O)[C@H](O)[C@H]4O[C@@H]4OC[C@](O)(CO[C@@H]5OC[C@](O)(CO)[C@H]5O)[C@H]4O)cc3O2)ccc1O` [VISCUMNEOSIDE V], the IC50 (in data set [1]; in data set [2]; with IL-6 (mouse)) was above 50 µM throughout. In addition, in data set [3], the Activity result is listed as “Non-toxic”.

`CC(=O)O[C@H]1CC[C@]2(C)[C@H]3CC=C4[C@@H]5CC(C)(C)CC[C@]5(C)CC[C@@]4(C)[C@]3(C)CC[C@H]2C1(C)C` [beta-AMYRIN ACETATE]: the IC50 (in data set [1]; in data set [2]; in the data set with IL-6 (mouse)) was above 50 µM throughout. The Activity entry in data set [3] is “Non-toxic”.
